Experimental data reported in ChEMBL document CHEMBL4364294 (J Med Chem, 2019).
Values after ≈ are worked out from the molar mass of the structure shown.

Legend:
[1] = Intrinsic clearance in human liver microsomes; format: ADME, Microsome; details: read-out: CLH
[2] = Aqueous solubility of the compound at pH 7.4; format: physicochemical
[3] = Aqueous solubility of the compound at pH 1; format: physicochemical
[4] = Aqueous solubility of the compound at pH 6.5; format: physicochemical

SMILES	predicted hepatic clearance [1]	solubility [2]	solubility [3]	solubility [4]
O[C@@H](C[C@H]1c2c(F)cccc2-c2cncn21)[C@H]1CC[C@@H](O)CC1	12.7 mL/min/kg	–	–	–
OC1CCC(C(O)CC2c3c(F)cccc3-c3cncn32)CC1 (stereo unspecified)	4.06 mL/min/kg	316 µM (≈ 100 µg/mL)	353 µM (≈ 112 µg/mL)	329 µM (≈ 104 µg/mL)
O[C@H](C[C@H]1c2c(F)cccc2-c2cncn21)[C@H]1CC[C@@H](O)CC1	18.5 mL/min/kg	–	–	–
O=C(N[C@H]1CC[C@H](C(O)CC2c3ccccc3-c3cncn32)CC1)c1ccccc1 (stereo partly specified)	–	25 µM (≈ 10 µg/mL)	363 µM (≈ 146 µg/mL)	22 µM (≈ 8.83 µg/mL)
OC(CC1c2c(F)cccc2-c2cncn21)C1CCC(F)(F)CC1 (stereo unspecified)	15.3 mL/min/kg	–	–	–
OC(CC1c2c(F)cccc2-c2cncn21)C1CCCCC1 (stereo unspecified)	18.9 mL/min/kg	–	–	–
